Test results from patent US20230365583A1, “FUSED TRICYCLIC PYRIMIDINE-THIENO-PYRIDINE SMALL MOLECULE INHIBITORS OF UBIQUITIN-SPECIFIC PROTEASE 28” (Dana-Farber Cancer Institute, Inc., priority 2020, published 2023).

target: T1, USP28 (Homo sapiens (Human), UniProt Q96RU2); test: Competitive activity-based protein profiling (Ub-VME labeling, Western blot) in K562 cell lysate; type: binding; conditions: K562 cells lysed, treated with compound for 1 h followed by incubation with Ub-VME; Western blot (FIG. 2)
Protocol: K562 cells were lysed and treated with indicated concentrations of compound 1 for 1 h followed by incubation with Ub-VME. Ub-VME covalently modifies USP28, resulting in higher MW band observed by Western blot.
Cells were pelleted, washed with PBS buffer, lysed on ice (20 mM Tris pH 8, 150 mM NaCl, 1% NP-40, 10% glycerol, 1 mM TCEP, phosphatase inhibitor cocktails (Sigma P5726 and Calbiochem 524624), and protease inhibitors (pepstatin, leupeptin, PMSF, and aprotinin), and clarified by centrifugation. Protein content was quantified by BCA and diluted to 2 mg/mL in lysis buffer. Compounds were added at desired concentrations and incubated at room temperature for 30 minutes. Samples were then supplemented with 2 uM HA-Ub-VS and incubated at room temperature with shaking for 15 minutes. Reactions were quenched with 4×LDS sample buffer (Thermo Fisher B0007) supplemented with 10% BME, vortexed vigorously, and heated to 95° C. for 5 minutes. Samples were resolved by SDS-PAGE and analyzed by Western blot with the indicated antibodies.

T1 sequence (Q96RU2 whole entry): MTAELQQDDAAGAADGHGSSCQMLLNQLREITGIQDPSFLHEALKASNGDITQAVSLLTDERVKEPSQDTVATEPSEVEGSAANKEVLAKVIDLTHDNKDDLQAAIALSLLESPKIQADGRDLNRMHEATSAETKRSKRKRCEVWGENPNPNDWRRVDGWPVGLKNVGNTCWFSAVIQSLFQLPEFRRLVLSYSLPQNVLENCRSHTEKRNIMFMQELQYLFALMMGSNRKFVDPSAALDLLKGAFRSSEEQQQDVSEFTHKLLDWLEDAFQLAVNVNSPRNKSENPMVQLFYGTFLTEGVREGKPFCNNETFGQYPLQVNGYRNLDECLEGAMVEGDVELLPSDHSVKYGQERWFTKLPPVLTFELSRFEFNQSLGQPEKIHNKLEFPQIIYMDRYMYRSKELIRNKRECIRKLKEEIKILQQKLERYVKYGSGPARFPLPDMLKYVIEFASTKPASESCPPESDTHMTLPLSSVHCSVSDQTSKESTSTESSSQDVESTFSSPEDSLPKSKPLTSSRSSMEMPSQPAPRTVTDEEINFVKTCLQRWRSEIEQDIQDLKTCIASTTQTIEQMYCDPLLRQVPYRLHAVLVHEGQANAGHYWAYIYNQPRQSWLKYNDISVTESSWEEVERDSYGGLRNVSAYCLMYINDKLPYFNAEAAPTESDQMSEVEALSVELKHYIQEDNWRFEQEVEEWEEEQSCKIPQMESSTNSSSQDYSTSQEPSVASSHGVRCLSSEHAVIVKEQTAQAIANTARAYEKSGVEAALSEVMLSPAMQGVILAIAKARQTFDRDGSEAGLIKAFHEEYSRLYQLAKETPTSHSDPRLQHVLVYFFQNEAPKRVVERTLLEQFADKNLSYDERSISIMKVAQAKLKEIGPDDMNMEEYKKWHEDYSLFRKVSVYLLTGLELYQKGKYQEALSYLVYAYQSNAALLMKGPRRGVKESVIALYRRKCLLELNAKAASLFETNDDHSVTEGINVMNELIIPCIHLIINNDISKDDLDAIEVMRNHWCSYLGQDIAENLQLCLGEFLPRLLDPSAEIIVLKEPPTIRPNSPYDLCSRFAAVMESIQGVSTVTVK

Row | Structure (SMILES) | Target engagement: labeling of USP28 by covalent Ub-VME probe
1 | CCCc1nc2sc3c(NCCc4ccc(OC)c(OC)c4)ncnc3c2c2c1CCC2 [Compound 1] | prevents labeling of USP28 by the covalent Ub-VME probe

target: T1, USP28; test: Ubiquitin-Rhodamine110 assay; type: biochemical; conditions: USP28 at 1 nM; 30 minutes pre-incubation at room temperature; Ubiquitin-Rho110 substrate 125 nM
Protocol: USP28 (at 1 nM) was pre-incubated with different concentrations of inhibitors or DMSO as a control in 50 mM Tris pH 8, 50 mM NaCl, 0.002% Tween-20, 5 mM DTT. Compounds and protein were incubated for 30 minutes at room temperature prior to the addition of Ubiquitin-Rho110 (Boston Biochem) substrate for a final concentration of 125 nM. The initial rate of the reaction was measured by collecting fluorescence data at one-minute interval over 30-minute period using a Clariostar® fluorescence plate reader at excitation and emission wavelength of 485 nm and 535 nm, respectively. The calculated initial rate values were plotted against inhibitor concentrations to determine IC50s. All the experimental data were plotted using GraphPad Prism®.

Row | IC50 [nM] | Structure (SMILES)
2 | < 1000 | CCCc1nc2sc(C(=O)NC(C)Cc3ccc(OC)c(OC)c3)c(N)c2c2c1CCC2 (centres unmarked) [Compound 37]
3 | < 1000 | CCCc1nc2sc(C(=O)NC[C@@H](C)c3ccccc3)c(N)c2c2c1CCC2 [Compound 41]
4 | < 1000 | CCCc1nc2sc(C(=O)N[C@@H](C)Cc3ccc(OC)cc3)c(N)c2c2c1CCC2 [Compound 47]
5 | < 1000 | COc1ccc(CCNC(=O)c2sc3nc(C)c4c(c3c2N)CCC4)cc1OC [Compound 25]
6 | < 1000 | COc1ccc(CCNC(=O)c2sc3nc(C)ccc3c2N)cc1OC [Compound 20]
7 | < 1000 | CCCc1nc2sc(C(=O)NCCc3ccc(N4CCNCC4)cc3)c(N)c2c2c1CCC2 [Compound 21]
8 | < 1000 | Cc1ccc2c(N)c(C(=O)NCCc3ccc(N4CCNCC4)cc3)sc2n1 [Compound 30]
9 | < 1000 | CCCc1nc2sc3c(NCCc4ccc(OC)c(OC)c4)ncnc3c2c2c1CCCC2 [Compound 45]
10 | < 1000 | Cc1ccc2c(N)c(C(=O)NCCc3ccc(C4CCNCC4)cc3)sc2n1 [Compound 22]
11 | 10000 to 100000 | CCCc1nc2sc3c(NCCCc4ccc(OC)c(OC)c4)ncnc3c2c2c1CCC2 [Compound 14]
12 | 1000 to 10000 | COc1ccc(CCNc2ncnc3c2sc2ncc4c(c23)CCC4)cc1OC [Compound 8]
13 | < 1000 | CCCc1nc2sc(C(=O)NCC(C)c3ccc(OC)c(OC)c3)c(N)c2c2c1CCC2 (centres unmarked) [Compound 36]
14 | < 1000 | CCCc1nc2sc(C(=O)NCCc3ccc(OC)c(OC)c3)c(NC(C)=O)c2c2c1CCC2 [Compound 29]
15 | < 1000 | CCCc1nc2sc(C(=O)NCCc3ccc(OC)c(OC)c3)c(N)c2c2c1CCC2 [Compound 18]
16 | < 1000 | CCCc1ccc2c(n1)sc1c(NCCc3ccc4c(c3)OCCO4)ncnc12 [Compound 39]
17 | 1000 to 10000 | CCCc1nc2sc3c(OCCc4ccc(OC)c(OC)c4)ncnc3c2c2c1CCC2 [Compound 44]
18 | 1000 to 10000 | CCCc1nc2sc3c(NCCc4ccc5c(c4)OCCO5)ncnc3c2c2c1CCC2 [Compound 13]
19 | < 1000 | CCCc1nc2sc3c(NCCc4cccs4)ncnc3c2c2c1CCC2 [Compound 17]
20 | > 100000 | CCCc1nc2sc3c(NCc4ccc(Cl)c(Cl)c4)ncnc3c2c2c1CCC2 [Compound 5]
21 | < 1000 | CCCc1ccc2c(N)c(C(=O)NCCc3ccc(OC)c(OC)c3)sc2n1 [Compound 28]
22 | < 1000 | CCCc1ccc2c(n1)sc1c(NCCc3ccc(OC)c(OC)c3)ncnc12 [Compound 38]
23 | < 1000 | CCCc1ccc2c(n1)sc1c(NCCc3ccc(N(C)C)cc3)ncnc12 [Compound 42]
24 | < 1000 | CCCc1nc2sc3c(NCCc4ccc(OC)c(OC)c4)ncnc3c2c2c1CCC2 [Compound 1]
25 | < 1000 | CCCc1nc2sc3c(NCc4ccco4)ncnc3c2c2c1CCC2 [Compound 2]

Row | IC50 [nM] | Structure (SMILES)
26 | < 1000 | CCCc1nc2sc3c(NCc4ccc(OC)c(OC)c4)ncnc3c2c2c1CCC2 [Compound 9]
27 | 1000 to 10000 | CCCc1nc2sc3c(NCCc4c[nH]c5ccccc45)ncnc3c2c2c1CCC2 [Compound 15]
28 | < 1000 | CCCc1nc2sc(C(=O)N[C@H](C)Cc3ccc(OC)cc3)c(N)c2c2c1CCC2 [Compound 50]
29 | < 1000 | CCCc1nc2sc(C(=O)NCCc3ccc(OC)c(OC)c3)c(NCc3ccccc3)c2c2c1CCC2 [Compound 33]
30 | < 1000 | CCCc1nc2sc3c(NCCc4ccc(N5CCNCC5)cc4)ncnc3c2c2c1CCC2 [Compound 19]
31 | < 1000 | CCCc1nc2sc(C(=O)NCCc3ccc(OC)c(OC)c3)c(N)c2cc1C(=O)N(C)C [Compound 35]
32 | 1000 to 10000 | CCCc1nc2sc3c(NCCc4cc(OC)c(OC)c(OC)c4)ncnc3c2c2c1CCC2 [Compound 16]
33 | < 1000 | CCCc1nc2sc3c(NCCc4ccc(N(C)C)cc4)ncnc3c2c2c1CCC2 [Compound 12]
34 | < 1000 | CCCc1nc2sc3c(NCCc4ccc(OC)cc4)ncnc3c2c2c1CCC2 [Compound 10]
35 | 1000 to 10000 | COc1ccc(CCNc2ncnc3c2sc2ncccc23)cc1OC [Compound 6]
36 | 10000 to 100000 | CCCc1nc2sc3c(N(C)CCc4ccc(OC)c(OC)c4)ncnc3c2c2c1CCC2 [Compound 7]
37 | < 1000 | CCCc1nc2oc(C(=O)NCCc3ccc(OC)c(OC)c3)c(N)c2c2c1CCC2 [Compound 27]
38 | < 1000 | COc1ccc(CCNC(=O)c2sc3nc4c(c(C)c3c2N)CCC4)cc1OC [Compound 26]
39 | < 1000 | CCCc1ccc2c(n1)sc1c(NCC(C)c3ccc(OC)c(OC)c3)ncnc12 (centres unmarked) [Compound 43]
40 | < 1000 | CCCc1nc2sc(C(=O)NCCc3ccc(OC)c(OC)c3)c(N)c2c2c1CCCC2 [Compound 46]
41 | 10000 to 100000 | CCCc1nc2sc3c(NC4CCCCC4)ncnc3c2c2c1CCC2 [Compound 3]
42 | 10000 to 100000 | CCCc1nc2sc3c(NCCc4ccc(Cl)c(Cl)c4)ncnc3c2c2c1CCC2 [Compound 4]
43 | < 1000 | CCCc1nc2sc(C(=O)NCCc3ccc(O)c(O)c3)c(N)c2c2c1CCC2 [Compound 32]
44 | 10000 to 100000 | CCCc1nc2sc3c(NCCc4cccc(OC)c4)ncnc3c2c2c1CCC2 [Compound 11]
45 | < 1000 | CCCCCc1nc2sc3c(NCCc4ccc(OC)c(OC)c4)ncnc3c2c2c1CCC2 [Compound 48]
46 | < 1000 | CCCc1nc2sc(C(=O)NC[C@H](C)c3ccccc3)c(N)c2c2c1CCC2 [Compound 40]
47 | < 1000 | CCCCCc1nc2sc(C(=O)NCCc3ccc(OC)c(OC)c3)c(N)c2c2c1CCC2 [Compound 49]
48 | < 1000 | Cc1ccc2c(N)c(C(=O)NCCc3ccc(N4CCN(C(=O)OC(C)(C)C)CC4)cc3)sc2n1 [Compound 31]

Row | Structure (SMILES) | IC50 [nM]
49 | Cc1ccc2c(N)c(C(=O)NCCc3ccc(C4CC5CCC(C4)N5)cc3)sc2n1 (centres unmarked) [Compound 23] | < 1000
50 | Cc1ccc2c(N)c(C(=O)NCCc3ccc(C4CC5CCC(C4)N5C(=O)OC(C)(C)C)cc3)sc2n1 (centres unmarked) [Compound 24] | < 1000
